# Patent publication US20100015058A1, “RADIOLABELED BBN-RGD HETERODIMERS FOR CANCER TARGETING” (STANFORD UNIVERSITY, priority 2008, published 2010)
# Key:
# [1] = tested on: PC-3 tumor; assay: Small-animal PET of PC-3 tumor-bearing mice
# Protocol: (§1) (a) PET scans and image analysis were performed using a micro-PET R4 rodent model scanner (Siemens Medical Solutions) as reported by Li et al., J. Nucl. Med. (2007) 48: 1162-1171 and Wu et al., J Nucl. Med. (2005) 46: 1707-1718, both of which are incorporated herein by reference in their entireties). […] Five-minute static PET images were then acquired at 0.5, 1, and 2 h after injection. The images were reconstructed by a 2-dimensional ordered-subsets expectation maximum (OSEM) algorithm. No attenuation or scatter correction was applied. […] The 5-min static PET scans were then acquired at 1 hr after injection. For each small-animal PET scan, regions of interest (ROIs) were drawn over the tumor, normal tissue, and major organs by using vendor software (ASI Pro 5.2.4.0) on decay-corrected whole-body coronal images. The average radioactivity concentration (accumulation) within a tumor or an organ was obtained from mean pixel values within the multiple ROI volume, which were converted to counts/mL/min using a conversion factor. Assuming a tissue density of 1 g/mL, the ROIs were converted to counts/g/min, and then divided by the administered activity to obtain an imaging ROI-derived percentage injected dose per gram of tissue (% ID/g).
# (§2) For dynamic PET, 30-min scans (1×30 s, 4×1 min, 1×1.5 min, 4×2 min, 5×3 min; total 15 frames) were started 1 min after injection, and two 5-min static PET images were also acquired at 1 h and 2 h after injection. […] For each small-animal PET scan, regions of interest (ROIs) were drawn over the tumor, normal tissue, and major organs using vendor software ASI Pro 5.2.4.0 on decay-corrected whole-body coronal images. The maximum radioactivity concentrations (accumulation) within a tumor or an organ were obtained from mean pixel values within the multiple ROI volume, and were converted to megabecquerels per milliliter per minute using a conversion factor. These values were then divided by the administered activity to obtain (assuming a tissue density of 1 g/ml) an image ROI-derived percent injected dose per gram (% ID/g).
# (§3) The images were reconstructed using a 2-dimensional ordered-subsets expectation maximum algorithm without attenuation or scatter correction.
# (§4) For each small-animal PET scan, regions of interest were drawn over each tumor, over normal tissue, and over major organs using vendor software (ASI Pro, version 5.2.4.0) on decay-corrected whole-body coronal images. The maximum radioactivity concentration (accumulation) within a tumor or an organ was obtained from the mean pixel values within the multiple-region-of-interest volume, which were converted to MBq/mL/min using a conversion factor. Assuming a tissue density of 1 g/mL, the regions of interest were converted to MBq/g/min and then divided by the administered activity to obtain an imaging region-of-interest-derived percentage injected dose (% ID)/g.
# [2] = Small-animal PET of PC-3 tumor-bearing mice; settings: mouse, in vivo, iv, total radioactivity; for tissue to tissue ratio at 2 h: T/NT ratio
# Protocol: as §1, §2, §3, §4
# [3] = tested on: T47D tumor; assay: MicroPET of T47D tumor-bearing mice; assay type: in vivo; settings: orthotopic model
# Excerpt: The MDA-MB-231, MDA-MB468, BT474, BT-20, T47D, MCF-7 and MDA-MB435 human breast cancer cell lines were all obtained from the American Type Culture Collection (ATCC) and maintained under standard conditions according to ATCC. The MDA-MB435 tumor model was established by orthotopic injections of 5×10^6 cells into the right mammary fat pad of female athymic nude mice. For T47D tumor model establishment, the female nude mice were first subcutaneously implanted with 60-day release 17β-estradiol pellets (Innovative Research of America, Sarasota, Fla.) in the left neck. One day after the estradiol implantation, 1×10^7 T47D cells were orthotopically injected into the right mammary fat pad of the nude mice. The mice were subjected to microPET studies when the tumor volume reached 100-300 mm^3 (2-3 weeks for MDA-MB-435, and 4-5 wk for T47D).
# (§5) Quantification of tumor and major organ activity accumulation in the microPET scans was realized by measuring the regions of interest (ROIs) that encompassing the entire organ on the coronal images.
# [4] = in vivo; set-up: species or system mice; settings: male, athymic nude, mouse, 0.74 MBq, total radioactivity
# Protocol: At 0.5 h and 1 h after injection of the tracer, the tumor-bearing mice were killed and dissected. Blood, tumor, major organs, and tissues were collected and wet-weighed. The radioactivity in the tissue was measured by y counter (Packard). The results are presented as percentage injected dose per gram of tissue (% ID/g). For each mouse, the radioactivity of the tissue samples was calibrated against a known aliquot of the injectate and normalized to a body mass of 20 g. Values were expressed as mean±SD for groups of four animals (n=4 per group).
# [5] = tested on: PC-3 tumor cells; assay type: cell-based, human
# Protocol: In the cell efflux experiment, PC-3 cells were seeded into 12-well plates at a density of 5×10^5 cells per well for overnight incubation. Cells were rinsed 3 times with PBS and then the appropriate ^18F-labeled peptide tracer was added. The cells were incubated at 37° C. for 2 hr, washed with PBS, and then reincubated with serum-free medium. The cells were washed at different time points (0, 15, 30, 60, 120, 180 min) with PBS and lysed with NaOH-SDS (0.2 M NaOH, 1% SDS). The cell lysate was collected in measurement tubes for counting. Efflux values at different time points were calculated by subtracting retention from 0-min retention, and normalized by dividing the total counts at 0 min.
# The cell uptake studies were performed as we have previously described with some modifications (Chen et al., Mol Imaging Biol. (2004) […]; Cai et al., (2006) J. Nuc. Med. 47: 1172-1180, incorporated herein by reference in their entireties). Briefly, PC-3 cells were seeded into 12-well plates at a density of 5×10^5 cells per well and incubated (about 18 kBq/well) with ^68Ga-labeled tracers at 37° C. for 15, 30, 60, and 120 min. Tumor cells were then washed three times with chilled PBS and harvested by trypsinization with 0.25% trypsin/0.02% EDTA (Invitrogen). The cell suspensions were collected and measured in a y counter (Packard, Meriden, Conn.). The cell uptake was expressed as the percent added dose (% AD) after decay correction. Experiments were performed twice with triplicate wells. For efflux studies, ^68Ga-labeled tracers (about 18 kBq/well) were first incubated with PC-3 cells in 12-well plates for 1 h at 37° C. to allow internalization. Then cells were washed twice with PBS, and incubated with cell culture medium for 15, 30, and 60 min. After washing three times with PBS, cells were harvested by trypsinization with 0.25% trypsin/0.02% EDTA. The cell suspensions were collected and measured in a γ counter. Experiments were performed twice with triplicate wells. Data are expressed as percent added dose after decay correction.
# [6] = tested on: MDA-MB-435 tumor; assay: Small-animal PET of MDA-MB-435 tumor-bearing mice; settings: female, athymic nude, mouse, in vivo, iv
# Protocol: The MDA-MB435 tumor model was established by orthotopic injections of 5×10^6 cells into the right mammary fat pad of female athymic nude mice. […] The mice were subjected to microPET studies when the tumor volume reached 100-300 mm^3 (2-3 weeks for MDA-MB-435, and 4-5 wk for T47D).
# For static PET, 5-min scans were acquired at 30 min, 1 h, and 2 h after injection. For dynamic PET, 30-min scans (1×30 s, 4×1 min, 1×1.5 min, 4×2 min, 5×3 min; total 15 frames) were started 1 min after injection, and two 5-min static PET images were also acquired at 1 h and 2 h after injection. The images were reconstructed using a two-dimensional ordered subsets expectation maximum (OSEM) algorithm and no correction was applied for attenuation or scatter. […] For each small-animal PET scan, regions of interest (ROIs) were drawn over the tumor, normal tissue, and major organs using vendor software ASI Pro 5.2.4.0 on decay-corrected whole-body coronal images. The maximum radioactivity concentrations (accumulation) within a tumor or an organ were obtained from mean pixel values within the multiple ROI volume, and were converted to megabecquerels per milliliter per minute using a conversion factor. These values were then divided by the administered activity to obtain (assuming a tissue density of 1 g/ml) an image ROI-derived percent injected dose per gram (% ID/g).
# as §5
# [7] = male, athymic nude, 10 mg/kg, PC-3 tumor uptake with RGD blocking, 1 h, 3.7 MBq, co-injected c(RGDyK) 10 mg/kg
# [8] = male, athymic nude, 3.7 MBq, PC-3 tumor uptake
# [9] = male, athymic nude, 3.7 MBq, PC-3 tumor uptake, dynamic scan
# [10] = male, athymic nude, 3.7 MBq, PC-3 tumor uptake, static scan after dynamic scan
# [11] = male, athymic nude, 3.7 MBq, liver uptake (highest)
# [12] = male, athymic nude, PC-3 tumor uptake with BBN blocking, 1 h, 3.7 MBq, co-injected Aca-BBN(7-14) 15 mg/kg
# [13] = male, athymic nude, PC-3 tumor uptake with RGD+BBN blocking, 1 h, 3.7 MBq, co-injected RGD 10 mg/kg and BBN 15 mg/kg
# [14] = male, athymic nude, 5.5 MBq, Tumor uptake
compound,measurement,setting,value
CSCC[C@H](NC(=O)[C@H](CC(C)C)NC(=O)[C@H](Cc1c[nH]cn1)NC(=O)CNC(=O)[C@@H](NC(=O)[C@H](C)NC(=O)[C@H](Cc1c[nH]c2ccccc12)NC(=O)[C@H](CCC(N)=O)NC(=O)CCCCCNC(=O)CC[C@H](NC(=O)COCCOCCOCCNC(=O)c1ccc([18F])cc1)C(=O)NCCCC[C@@H]1NC(=O)[C@@H](Cc2ccc(O)cc2)NC(=O)[C@H](CC(=O)O)NC(=O)CNC(=O)[C@H](CCCNC(=N)N)NC1=O)C(C)C)C(N)=O [^18F-FB-PEG3-RGD-BBN],decrease of tumor uptake by BBN blocking,"[1]; 1 h, Aca-BBN(7-14) 15 mg/kg, n=3",65%
same,decrease of tumor uptake by RGD and BBN blocking,"[1]; 1 h, RGD 10 mg/kg and BBN 15 mg/kg, n=3",90%
same,decrease of tumor uptake by RGD blocking,"[1]; 1 h, c(RGDyK) 10 mg/kg, n=3",50%
same,blood % ID/g at 30 min relative to that at 2 min p.i.,"[1]; mouse, in vivo",35%
same,time of peak kidney uptake,"[1]; mouse, in vivo",about 10 min
same,tissue uptake at 1 h,[2]; [7],2.19 ± 0.97 %ID/g
same,tissue uptake at 0.5 h,[2]; [8],6.35 ± 2.52 %ID/g
same,tissue uptake at 1 h,[2]; [8],4.41 ± 0.71 %ID/g
same,tissue uptake at 2 h,[2]; [8],2.47 ± 0.81 %ID/g
same,tissue uptake at 5 min,[2]; [9],3.54 %ID/g
same,tissue uptake at 0.25 h,[2]; [9],4.86 %ID/g
same,tissue uptake at 0.5 h,[2]; [9],5.64 %ID/g
same,tissue uptake at 1 h,[2]; [10],4.08 %ID/g
same,tissue uptake at 2 h,[2]; [10],2.88 %ID/g
same,tissue uptake at 0.5 h,[2]; [11],< 2 %ID/g
same,tissue uptake at 1 h,[2]; [12],1.58 ± 0.52 %ID/g
same,tissue uptake at 1 h,[2]; [13],0.43 ± 0.08 %ID/g
same,tissue to tissue ratio at 2 h,[2]; tumor/blood,8.1 ± 1.14
same,tissue to tissue ratio at 2 h,[2]; tumor/kidneys,1.44 ± 0.05
same,tissue to tissue ratio at 2 h,[2]; tumor/liver,6.43 ± 0.81
same,tissue to tissue ratio at 2 h,[2]; tumor/muscle,10.5 ± 0.75
same,T47D tumor uptake,[3]; 0.5 h,2.96±0.53 % ID/g
same,T47D tumor uptake,[3]; 1 h,1.81±0.34 % ID/g
same,T47D tumor uptake,[3]; 2 h,0.91±0.12 % ID/g
same,tissue uptake at 1 h,"[4]; kidney uptake, biodistribution",4.87 ± 0.67 %ID/g
same,tissue uptake at 1 h,"[4]; tumor uptake, biodistribution",4 ± 0.08 %ID/g
same,tissue uptake at 1 h,"[4]; uptake values in the blood, heart, liver, spleen, bone, and muscle",< 2 %ID/g
same,efflux ratio,[5],about 40%
"CSCC[C@H](NC(=O)[C@H](CC(C)C)NC(=O)[C@H](Cc1c[nH]cn1)NC(=O)CNC(=O)[C@@H](NC(=O)[C@H](C)NC(=O)[C@H](Cc1c[nH]c2ccccc12)NC(=O)[C@H](CCC(N)=O)NC(=O)CCCCCNC(=O)CC[C@H](NC(=S)Nc1ccc(C[C@H]2CN(CC(=O)O)CCN(CC(=O)O)CCN2CC(=O)O)cc1)C(=O)NCCCC[C@@H]1NC(=O)[C@@H](Cc2ccc(O)cc2)NC(=O)[C@H](CC(=O)O)NC(=O)CNC(=O)[C@H](CCCNC(=N)N)NC1=O)C(C)C)C(N)=O [^64Cu-NOTA-RGD-BBN, metal not drawn]",MDA-MB-435 tumor uptake,[6]; 1 h,1.84 ± 0.44 % ID/g
same,MDA-MB-435 tumor uptake,[6]; 2 h,1.47 ± 0.19 % ID/g
same,tissue uptake at 0.5 h,"[2]; male, athymic nude, 5.5 MBq, Blood uptake",< 1 %ID/g
same,tissue uptake at 1 h,"[2]; male, athymic nude, 5.5 MBq, PC-3 tumor uptake with BBN blocking",0.76 ± 0.36 %ID/g
same,tissue uptake at 1 h,"[2]; male, athymic nude, 5.5 MBq, PC-3 tumor uptake with RGD and BBN blocking",0.54 ± 0.41 %ID/g
same,tissue uptake at 1 h,"[2]; male, athymic nude, 5.5 MBq, PC-3 tumor uptake with RGD blocking",1.64 ± 0.77 %ID/g
same,tissue uptake at 0.5 h,[2]; [14],3.06 ± 0.11 %ID/g
same,tissue uptake at 1 h,[2]; [14],2.78 ± 0.56 %ID/g
same,tissue uptake at 4 h,[2]; [14],2.21 ± 0.49 %ID/g
same,tissue uptake at 20 h,[2]; [14],2.04 ± 0.35 %ID/g
same,tissue uptake at 24 h,[2]; [14],2.04 ± 0.35 %ID/g
same,tissue uptake,"[2]; male, athymic nude, 5.5 MBq, liver uptake",3.5 %ID/g
same,tissue uptake at 1 h,"[2]; 5.5 MBq, Blood uptake",0.66 ± 0.15 %ID/g
same,tissue uptake at 4 h,"[2]; 5.5 MBq, Blood uptake",0.49 ± 0.07 %ID/g
same,tissue uptake at 20 h,"[2]; 5.5 MBq, Blood uptake",0.5 ± 0.15 %ID/g
same,tissue uptake at 0.5 h,"[2]; 5.5 MBq, Kidney uptake",4.09 ± 0.81 %ID/g
same,tissue uptake at 1 h,"[2]; 5.5 MBq, Kidney uptake",3.06 ± 0.25 %ID/g
same,tissue uptake at 4 h,"[2]; 5.5 MBq, Kidney uptake",2.3 ± 0.41 %ID/g
same,tissue uptake at 20 h,"[2]; 5.5 MBq, Kidney uptake",1.87 ± 0.41 %ID/g
same,tissue uptake at 0.5 h,"[2]; 5.5 MBq, Liver uptake",3.46 ± 0.26 %ID/g
same,tissue uptake at 1 h,"[2]; 5.5 MBq, Liver uptake",2.8 ± 1.15 %ID/g
same,tissue uptake at 4 h,"[2]; 5.5 MBq, Liver uptake",1.83 ± 0.68 %ID/g
same,tissue uptake at 20 h,"[2]; 5.5 MBq, Liver uptake",0.98 ± 0.4 %ID/g
same,T47D tumor uptake,[3]; 0.5 h,3.73 ± 0.81 % ID/g
same,T47D tumor uptake,[3]; 1 h,2.33 ± 0.59 % ID/g
same,T47D tumor uptake,[3]; 2 h,1.97 ± 0.32 % ID/g
"CSCC[C@H](NC(=O)[C@H](CC(C)C)NC(=O)[C@H](Cc1c[nH]cn1)NC(=O)CNC(=O)[C@@H](NC(=O)[C@H](C)NC(=O)[C@H](Cc1c[nH]c2ccccc12)NC(=O)[C@H](CCC(N)=O)NC(=O)CCCCCNC(=O)CC[C@H](NC(=S)Nc1ccc(C[C@H]2CN(CC(=O)O)CCN(CC(=O)O)CCN2CC(=O)O)cc1)C(=O)NCCCC[C@@H]1NC(=O)[C@@H](Cc2ccc(O)cc2)NC(=O)[C@H](CC(=O)O)NC(=O)CNC(=O)[C@H](CCCNC(=N)N)NC1=O)C(C)C)C(N)=O [^68Ga-NOTA-RGD-BBN, metal not drawn]",time of peak kidney uptake,"[1]; mouse, in vivo",about 10 min
same,tissue uptake at 1 h,[2]; [7],2.08 ± 0.65 %ID/g
same,tissue uptake at 0.5 h,[2]; [8],6.55 ± 0.83 %ID/g
same,tissue uptake at 1 h,[2]; [8],5.26 ± 0.32 %ID/g
same,tissue uptake at 2 h,[2]; [8],4.04 ± 0.28 %ID/g
same,tissue uptake at 5 min,[2]; [9],5.56 %ID/g
same,tissue uptake at 0.25 h,[2]; [9],6.68 %ID/g
same,tissue uptake at 0.5 h,[2]; [9],6.7 %ID/g
same,tissue uptake at 1 h,[2]; [10],4.47 %ID/g
same,tissue uptake at 2 h,[2]; [10],3.75 %ID/g
same,tissue uptake at 0.5 h,[2]; [11],~2 %ID/g
same,tissue uptake at 1 h,[2]; [12],1.61 ± 0.57 %ID/g
same,tissue uptake at 1 h,[2]; [13],0.42 ± 0.1 %ID/g
same,tissue uptake at 0.5 h,"[4]; kidney uptake, biodistribution",8.76 ± 1.83 %ID/g
same,tissue uptake at 1 h,"[4]; kidney uptake, biodistribution",5.58 ± 0.75 %ID/g
same,tissue uptake at 0.5 h,"[4]; tumor uptake, biodistribution",5.43 ± 0.54 %ID/g
same,tissue uptake at 1 h,"[4]; tumor uptake, biodistribution",4.76 ± 0.46 %ID/g
same,cell-associated tracer (cell retention),"[5]; PC-3 cells, 60 min efflux, FIG. 14D",1.14±0.50 % AD
